Data as given in US20100184852A1, “ORGANIC COMPOUNDS FOR TREATMENT OF DISORDERS CONNECTED TO IMPAIRED NEUROTRANSMISSION” (priority 2006, published 2010).

Experiments:
[1] = target: T1, Monoamine oxidase B (MAO-B) (Homo sapiens, UniProt P27338); assay: Monoaminooxidase B inhibition (H2O2/vanillic acid/HRP readout); assay type: biochemical
T1 sequence (P27338 1-520): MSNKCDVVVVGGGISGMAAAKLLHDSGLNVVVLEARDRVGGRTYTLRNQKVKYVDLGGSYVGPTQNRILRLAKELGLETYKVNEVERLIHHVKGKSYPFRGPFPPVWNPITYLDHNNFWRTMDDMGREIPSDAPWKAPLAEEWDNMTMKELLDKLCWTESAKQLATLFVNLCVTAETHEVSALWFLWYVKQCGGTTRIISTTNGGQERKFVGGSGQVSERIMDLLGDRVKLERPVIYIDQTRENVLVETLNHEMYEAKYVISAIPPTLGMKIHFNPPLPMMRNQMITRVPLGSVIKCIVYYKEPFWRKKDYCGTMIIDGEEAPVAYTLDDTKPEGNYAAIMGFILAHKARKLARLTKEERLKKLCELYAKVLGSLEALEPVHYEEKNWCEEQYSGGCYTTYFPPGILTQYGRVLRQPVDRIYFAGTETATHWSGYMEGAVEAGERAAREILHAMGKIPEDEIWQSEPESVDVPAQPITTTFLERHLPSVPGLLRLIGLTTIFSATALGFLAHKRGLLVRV
Procedure: The organic amines p-tyramine or benzylamine were used as substrates for the Monoamine oxidase A (MAO-A) and B (MAO-B) enzymes respectively. The H2O2 produced by this reaction was quantified by reaction with vanillic acid, catalysed by horse radish peroxidase (HRP).
The reactions were carried out in polystyrene microtitre plates. The MAO enzymes (final concentration 2 U/ml) were mixed with either p-tyramine (Sigma, final concentration 0.5 mM) or benzylamine (Sigma, final concentration 0.5 mM) as appropriate and the chromogenic solution (containing vanillic acid (Fluka), 4-aminoantipyrine (Fluka) and horse radish peroxidase (Sigma), final concentrations 0.25 mM, 0.125 mM and 1 U/ml respectively) in 0.2 M potassium phosphate buffer pH 7.6. The reactions were followed in a microtitre plate absorbance reader eg Spectramax M5 (Molecular Devices Corporation). Absorbance readings at 495 nm were taken every 15 seconds for 40 minutes and the initial reaction velocities calculated by linear regression using SOFTmaxPro (Molecular Devices Corporation).
The effect of ligustilide, 3-butylphthalide, senkyunolide C and cnidilide on the monoamine oxidase enzymes was determined by their inclusion in the assay at a range of concentrations between 0.03 and 100 μM for 10 minutes prior to and during the incubation with substrate. To determine the effect of the compounds on the HRP catalyzed portion of the reaction, the MAO enzyme was replaced by H2O2 (Molecular Probes, final concentration 0.2 mM). The reactions containing MAO-A and MAO-B were both inhibited by […] according to formula I in a dose dependent manner, whilst the control reaction, was unaffected. The measured IC50 values for inhibition of monoamine oxidase activity by ligustilide, 3-butylphthalide, senkyunolide C and enidilide, respectively, are shown in Table 3.

[2] = test system: mice; assay: Primary observation (Irwin) test in the mouse; assay type: in vivo; settings: for overall effect in the Irwin test: all doses tested
Procedure: The method, which detects the first toxic dose, the active dose-range and the principal effects of a test substance on behavior and physiological function, follows that described by Irwin 1968 Psychopharmaco, 13:222-257,
3 treated groups were compared with the same control at any one time. All animals within a treatment group were observed simultaneously.
Behavioral modifications, physiological and neurotoxicity symptoms, pupil diameter and rectal temperature were recorded according to a standardized observation grid derived from that of Irwin, supra. The grid contains the following items: lethality*, convulsions*, tremor*, Straub*, sedation, excitation, abnormal gait* (rolling, tip-toe), jumps*, motor incoordination*, writhes*, piloerection*, stereotypies* (sniffing, chewing, head movements), head twitches*, scratching*, respiration*, aggressiveness*, fear, reactivity to touch, muscle tone, loss of righting reflex, ptosis, exopthalmos, loss of grasping, akinesia, catalepsy, loss of traction, loss of corneal reflex, analgesia, defecation, salivation, lacrimation, pupil diameter (Unit=1/45 mm) and rectal temperature.
Observations were performed 15, 30, 60, 120 and 180 minutes after administration of the test substance and also 24 hours later. The symptoms marked (*) were observed continuously from 0 to 15 minutes after administration. 5 mice were studied per group.
3-Butylphthalide (98.5% purity) was solubilized in 3% DMSO, 3% Tween 80 in saline (0.9% w/v NaCl) and injected into mice intraperitoneally.

[3] = test system: mice; assay: Porsolt's swim test (behavioural despair test); assay type: in vivo, mouse; settings: for Duration of immobility [seconds] ± Standard Error of Mean: last 4 of 6 minutes
Procedure: The “Behavioural Despair Test” or “Porsolt's Forced Swim Test” is a validated animal model for depression (see T, Nagatsu 2004 Neuro Toxicology, 25:11-20, and Porsolt et al. 1977, Arch. Int. Pharmacodyn., 229: 327-336). It responds to enhancement of the trans-mission of several neurotransmitters including serotonine, dopamine and noradrenaline.
The test, which detects antidepressant activity, was carried out as described by Porsolt et al supra. Mice which are forced to swim in a situation from which they cannot escape rapidly become immobile. Antidepressants decrease the duration of immobility.
Mice were individually placed in a cylinder (Height=24 cm, Diameter=13 cm) containing 10 cm water (22° C.) from which they could not escape. The mice were placed in the water for 6 minutes and the duration of immobility during the last 4 minutes was measured.
10 mice were studied per each of the four groups. The test was performed blind, i.e. the person carrying out the experiment was different from the person injecting the mice and didn't thus know to which of the four groups each mouse belonged.
3-n-butylphthalide (98.5% purity) was evaluated at 3 doses each: at 10, 30 and 80 mg/kg body weight, administered intraperitoneally 30 minutes before the test, and compared with a control group. The thus administered 3-n-butylphthalide was dissolved in a saline solution containing 3 weight-% DMSO and 3 weight-% Tween® 80 (so called “vehicle”), To the control group the vehicle consisting of the saline solution containing 3 weight-% DMSO and 3 weight-% Tween® 80 was administered intraperitoneally.

[4] = 100 mg/kg, 15 to 60 minutes after administration

SMILES	IC50 [1] [µM]	muscle tone ([2]; 100 mg/kg, 15 to 60 minutes)	sedation [2, 4]	muscle tone ([2]; 200 mg/kg)	sedation ([2]; 200 mg/kg, up to 120 minutes)	overall effect in the Irwin test [2]	Duration of immobility [seconds] ± Standard Error of Mean ([3]; 10 mg/kg body weight) [s]	Duration of immobility [seconds] ± Standard Error of Mean ([3]; 30 mg/kg body weight) [s]	also measured
CCCC[C@@H]1OC(=O)c2ccccc21 (stereo in doubt) [3-n-butylphthalide, 3-n-Butylphthalide]	56.1	reduced muscle tone	slight sedative effects	reduced muscle tone	moderate sedative effects	dose dependent sedative and muscle relaxant effect	132.4 ± 9.3	128.0 ± 15.3	fear ([2]; 200 mg/kg, after 60 minutes): reduced fear; sedation ([2]; 300 mg/kg, 15 minutes and 30 minutes): marked sedation; sedation ([2]; 300 mg/kg, 60 minutes and 120 minutes): moderate sedation; fear ([2]; 300 mg/kg, 120 minutes): reduced; muscle tone ([2]; 300 mg/kg, 120 minutes): reduced; sedation ([2]; 300 mg/kg, 180 minutes): slight sedation; overall effect in the Irwin test ([2]; listed as 3-butylphthalide): dose dependent sedative, fear reducing and muscle relaxant effect; Duration of immobility [seconds] ± Standard Error of Mean ([3]; 80 mg/kg body weight): 129.0 ± 15.4 s; reduction of the immobility time ([3]; between 10 and 80 mg/kg, tendency): approximately 18%
CCC/C=C1\OC(=O)C2=C1CCC=C2 [Ligustilide]	24.9	decreased muscle tone	slight sedation	decreased muscle tone	slight-to-moderate	dose dependent sedative and muscle relaxant effect	128.9 ± 15.1	164.2 ± 15.5	sedation ([2]; 30 mg/kg, 30 minutes): slight sedation; sedation ([2]; 200 mg/kg, 180 minutes): slight; sedation ([2]; 300 mg/kg, 15 to 60 minutes): moderate; muscle tone ([2]; 300 mg/kg, 15 to 180 minutes): decreased muscle tone; sedation ([2]; 300 mg/kg, 120 to 180 minutes): slight; reduction of the immobility time ([3]; 10 mg/kg, tendency): approx. 18%; reduction of the immobility time ([3]; higher doses (30 and 80 mg/kg)): not at the higher doses
